From patent publication US20250090576A1, “METHODS FOR TREATING NONTUBERCULOUS MYCOBACTERIA DISEASES” (Microbion Corporation, priority 2022, published 2025)
Values after ≈ are worked out from the molar mass of the structure shown. Where two headings read alike, the source gives them in different places.

Experiments:
[1] = tested on: M. abscessus strain 19977; assay: MIC broth dilution, growth by turbidity/OD 595 nm; format: cell-based; settings: for Sensitivity phenotype (R/I/S): 19977; for MIC: Mycobacteroides abscessus
Experimental: (§1) Mycobacteria strains were used to determine MICs of BisEDT and amikacin. Strains included cystic fibrosis patient isolates from National Jewish Hospital. A range of high dose to low dose of antibiotics was used to determine bacteria susceptibility. M. avium strain 104, M. avium strain 3388, and CF patient strain DNA00133 were grown to log phase (7 days) while M. abscessus strain 19977, CF patient strain DNA00703, and CF patient strain DNA01715 achieved log phase (4 days) on 7H10 middlebrook media plates supplemented with 10% OADC (Oleic acid, Albumin, Dextrose, Catalase). […] For BisEDT, two types of compound physical states were tested. First, BisEDT was solubilized in DMSO (furthermore labeled soluble BisEDT). Second, BisEDT was made in suspension to mimic in vivo studies (furthermore labeled insoluble BisEDT). […] Control tubes containing no antibiotics were also included for each antibiotic tested. Inoculums of […] bacteria for each strain was measured with optical density (O.D.) at 595 nm. 10 μl of these inoculums were added to each antibiotic tube and incubated in a shaking incubator at 37° C. and 200 rpm. Slow growing stains were measured for growth after 10 days incubation while fast growing strains were incubated for 5 days. After incubation, 100 μl from each tube was pulled and placed in a 96-well plate for O.D. reading. Turbidity determined sensitive, intermediate, or resistant bacteria.

[2] = tested on: M. avium strain 104 (MAH 104); assay: MIC broth dilution, growth by turbidity/OD 595 nm; format: cell-based; settings: for Sensitivity phenotype (R/I/S): MAH 104; for MIC: Mycobacterium avium
Experimental: as §1

[3] = tested on: M. avium strain 3388 (MAH 3388); assay: MIC broth dilution, growth by turbidity/OD 595 nm; format: cell-based; settings: for Sensitivity phenotype (R/I/S): MAH 3388; for MIC: Mycobacterium avium
Experimental: as §1

[4] = tested on: CF patient strain DNA00133; assay: MIC broth dilution, growth by turbidity/OD 595 nm; format: cell-based, M. avium; settings: for MIC: Mycobacterium avium
Experimental: as §1

M. abscessus MABS2 = assay: MIC (Table 8); format: cell-based; settings: Mycobacteroides abscessus
M. abscessus MABS9 = assay: MIC (Table 8); format: cell-based; settings: Mycobacteroides abscessus
M. abscessus MABS11 = assay: MIC (Table 8); format: cell-based; settings: Mycobacteroides abscessus
[5] = tested on: M. abscessus MABS1 biofilm; assay: MBEC assay (minimum biofilm eradication concentration); format: cell-based; settings: 18 h challenge
From the text: (§2) In this study the MBEC assay was followed as described in the Innovotech Procedural Manual, version 2.1 with minor modifications to assess the antibiofilm activity of the antimicrobial compounds under investigation. The MBEC value refers to the Minimum Biofilm Eradication Concentration of each antimicrobial for each strain. The MBEC value is defined as the minimum antibiotic concentration where the optical density (OD) value at recovery is less than 10% of the control OD value and there is no growth observed with visual examination of the wells.
(§3) Step 1: Inoculation. For resuscitation, all strains were streaked on TSA plates, except for the mycobacteria which were streaked on 7H10 media, from the frozen stocks, and grew overnight at 37° C. (Table 6). From the plate, one colony was picked for inoculation in organism specific medium (OSM) and grown in a shaker incubator at 37° C. at 225 RPM until mid-log phase (OD 0.2-0.8). At mid log phase the culture was diluted in OSM medium (Table 6) to an OD of 0.05. 150 μL of it were aliquoted in each corresponding well in a 96-well MBEC plate (inoculation plate). Subsequently, the MBEC plates were incubated static at 37° C. for the appropriate time for each species (Table 7). During incubation, biofilm formed on the pegs.
(§4) Step 2: Challenge. Following incubation, the peg lid with the biofilm was washed twice in PBS and placed on a second 96-well plate with 200 μl of antibiotic dilutions (challenge plate). The challenge plate was then incubated at 37° C. for 18 h to allow exposure of the biofilm to antibiotics.
(§5) Step 3: Recovery. In the final step, the peg lid (with the biofilm after treatment with the antibiotics) was washed again twice in PBS and placed on a third 96-well plate (recovery plate) with 200 μl growth medium in each well to allow growth of any bacterial cells resistant to antibiotics at any concentration. The recovery of resistant cells was assessed by an end-point measurement of the optical density at 600 nm (OD600) for each well with a plate reader (FIG. 4).

[6] = tested on: M. abscessus MABS11 biofilm; assay: as above; format: cell-based; settings: 18 h challenge
From the text: as §2, §3, §4, §5

[7] = tested on: M. abscessus MABS2 biofilm; assay: as above; format: cell-based; settings: 18 h challenge
From the text: as §2, §3, §4, §5

[8] = tested on: M. abscessus MABS4 biofilm; assay: as above; format: cell-based; settings: 18 h challenge
From the text: as §2, §3, §4, §5

[9] = tested on: M. abscessus MABS7 biofilm; assay: as above; format: cell-based; settings: 18 h challenge
From the text: as §2, §3, §4, §5

[10] = tested on: M. abscessus MABS9 biofilm; assay: as above; format: cell-based; settings: 18 h challenge
From the text: as §2, §3, §4, §5

[11] = tested on: M. abscessus biofilm (six clinical isolates); assay: MBEC assay, summary over six clinical isolates; format: cell-based; settings: at high concentrations (amikacin, clarithromycin: apart from MABS4)
From the text: as §2, §3, §4
Step 3: Recovery. […] The recovery of resistant cells was assessed by an end-point measurement of the optical density at 600 nm (OD600) for each well with a plate reader (FIG. 4).
This is possibly, in part, due to the variable clumping of the cells observed in the biofilm biomass on the pegs. The clumping of the cells also impacted the OD readings. […] For replicate experiments with variable results, the final MBEC values were determined based on the higher MBEC concentration observed among the replicates.

NCC[C@H](O)C(=O)N[C@@H]1C[C@H](N)[C@@H](O[C@H]2O[C@H](CN)[C@@H](O)[C@H](O)[C@H]2O)[C@H](O)[C@H]1O[C@H]1O[C@H](CO)[C@@H](O)[C@H](N)[C@H]1O [amikacin]
Sensitivity phenotype (R/I/S) ([1]; 1 μg/mL): R
Sensitivity phenotype (R/I/S) ([1]; 2 μg/mL): R
Sensitivity phenotype (R/I/S) ([1]; 4 μg/mL): R
Sensitivity phenotype (R/I/S) ([1]; 8 μg/mL): R
Sensitivity phenotype (R/I/S) ([1]; 16 μg/mL): R
Sensitivity phenotype (R/I/S) ([1]; 32 μg/mL): S
Sensitivity phenotype (R/I/S) ([1]; 64 μg/mL): S
Sensitivity phenotype (R/I/S) ([1]; 128 μg/mL): S
MIC ([1]; M. abscessus strain 19977 (Table 4), read-out: MIC determined for the strain, used for treatment of infected macrophages): 32 µg/mL (≈ 54.6 µM)
MIC ([1]; M. abscessus strain 19977, read-out: MIC): 32 µg/mL (≈ 54.6 µM)
Sensitivity phenotype (R/I/S) ([2]; 1 μg/mL): R
Sensitivity phenotype (R/I/S) ([2]; 2 μg/mL): R
Sensitivity phenotype (R/I/S) ([2]; 4 μg/mL): R
Sensitivity phenotype (R/I/S) ([2]; 8 μg/mL): S
Sensitivity phenotype (R/I/S) ([2]; 16 μg/mL): S
Sensitivity phenotype (R/I/S) ([2]; 32 μg/mL): S
Sensitivity phenotype (R/I/S) ([2]; 64 μg/mL): S
Sensitivity phenotype (R/I/S) ([2]; 128 μg/mL): S
MIC ([2]; M. avium strain 104 (Table 3), read-out: MIC determined for the strain, used for treatment of infected macrophages): 8 µg/mL (≈ 13.7 µM)
MIC ([2]; M. avium strain 104, read-out: MIC): 8 µg/mL (≈ 13.7 µM)
Sensitivity phenotype (R/I/S) ([3]; 1 μg/mL): R
Sensitivity phenotype (R/I/S) ([3]; 2 μg/mL): R
Sensitivity phenotype (R/I/S) ([3]; 4 μg/mL): I
Sensitivity phenotype (R/I/S) ([3]; 8 μg/mL): S
Sensitivity phenotype (R/I/S) ([3]; 16 μg/mL): S
Sensitivity phenotype (R/I/S) ([3]; 32 μg/mL): S
Sensitivity phenotype (R/I/S) ([3]; 64 μg/mL): S
Sensitivity phenotype (R/I/S) ([3]; 128 μg/mL): S
MIC ([3]; M. avium strain 3388 (Table 3), read-out: MIC determined for the strain, used for treatment of infected macrophages): 8 µg/mL (≈ 13.7 µM)
MIC ([3]; M. avium strain 3388, read-out: MIC): 8 µg/mL (≈ 13.7 µM)
Sensitivity phenotype (R/I/S) ([4]; 1 μg/mL): R
Sensitivity phenotype (R/I/S) ([4]; 2 μg/mL): R
Sensitivity phenotype (R/I/S) ([4]; 4 μg/mL): R
Sensitivity phenotype (R/I/S) ([4]; 8 μg/mL): R
Sensitivity phenotype (R/I/S) ([4]; 16 μg/mL): R
Sensitivity phenotype (R/I/S) ([4]; 32 μg/mL): R
Sensitivity phenotype (R/I/S) ([4]; 64 μg/mL): R
Sensitivity phenotype (R/I/S) ([4]; 128 μg/mL): R
MIC [4]: > 128 µg/mL
MIC ([4]; M. avium strain 1333 (Table 3), read-out: MIC determined for the strain, used for treatment of infected macrophages): 8 µg/mL (≈ 13.7 µM)
MIC (M. abscessus MABS2): 32 µg/mL (≈ 54.6 µM)
MIC (M. abscessus MABS9): 8 µg/mL (≈ 13.7 µM)
MIC (M. abscessus MABS11): 1 µg/mL (≈ 1.71 µM)
MBEC [5]: >128 µg/mL
MBEC [6]: >16 µg/mL
MBEC [7]: >512 µg/mL
MBEC [8]: 8 µg/mL
MBEC ([8]; listed as Amikacin): <8 µg/mL
MBEC [9]: >16 µg/mL
MBEC [10]: >64 µg/mL
biofilm susceptibility, in words [11]: resistance
